Consider nine compounds from patent publication US11560352B2, “P62-ZZ small molecule modulators” (University of Pittsburgh—Of the Commonwealth System of …, priority 2015, dated 2023).

Counter-ions that a name gives are not always drawn.

The test system of one data set is RPMI8266. Kind of data set: inhibition of multiple myeloma cell growth, RPMI8266 cells. It is filed as cell-based. The conditions noted are these: Homo sapiens. The source says:
(§1) FIG. 2 is a schematic showing in vitro biological assays to validate screened compounds for multiple myeloma cells growth via inhibition of p62-zz domain and PKCζ phosphorylation.

The subject of the next data set is MM1S. The experiment in a line: inhibition of multiple myeloma cell growth, MM1S cells. The settings on record: Homo sapiens, MM1.S. It is filed as cell-based.
From the text: as §1

In a further data set the test system is U266. Kind of data set: inhibition of multiple myeloma cell growth, U266 cells. It is filed as cell-based. The settings on record: Homo sapiens, U-266.
From the text: as §1

In data set [1] the test system is RPMI-8226 human multiple myeloma xenograft. The experiment in a line: subcutaneous RPMI-8226 human multiple myeloma xenograft model: efficacy and tolerability. It is filed as in vivo. How it is done:
The therapeutic efficacy and tolerability of compound XIELP1-106 (also referred to as 10b) was evaluated in the treatment of subcutaneous RPMI-8226 human multiple myeloma xenograft model. The tumor volumes in the two groups at different time points are shown FIG. 3. The mean tumor volume of the XIELP1-106 vehicle control group reached 1,452 mm3 on day 39 after tumor implantation. The treatment of XIELP1-106 (60 mg/kg, ip, q3d×4 wks) produced a strong antitumor activity with T/C value of 23% (p=0.001).
The median survival time (MST) of the vehicle treated mice was 42 days (FIG. 4).
For orientation: Xenograft models place foreign cells or tissue in a host animal.

As for `Fc1ccc(COc2ccc(CNC3CCCCC3)cc2OCc2ccc(F)cc2)cc1` [XIELP1-12b, N-(3,4-bis((4-fluorobenzyl)oxy)benzyl)cyclohexanamine], the 50% inhibitory concentration (IC50) – broadly, the point on the concentration scale where inhibition reaches its midpoint – was determined as 1.18 µM in the data set with RPMI8266 and 1.77 µM with MM1S.
Turning to `Fc1ccc(COc2ccc(CNCC3CCCCC3)cc2OCc2ccc(F)cc2F)c(F)c1` [XIELP1-17b, N-(3,4-bis((2,4-difluorobenzyl)oxy)benzyl)-1-cyclohexylmethanamine], the IC50 turned out to be 0.94 µM in the data set on RPMI8266 and 0.84 µM in the data set on MM1S.
For `Fc1ccc(COc2ccc(CNC3CCCCC3)cc2OCc2ccc(F)cc2F)c(F)c1` [XIELP1-20a, N-(3,4-bis((2,4-difluorobenzyl)oxy)benzyl)cyclohexanamine], in that order: 1.13 µM and 2.53 µM.
For `Cc1ccc(COc2ccc(CNCCO)cc2OCc2ccc(C)cc2)cc1` [XIELP1-24b, 2-((3,4-bis((4-methylbenzyl)oxy)benzyl)amino)ethan-1-ol], the IC50 with U266 is 1.21 µM; in the data set with RPMI8266, 0.63 µM; in the data set on MM1S, 2.56 µM.
In the case of `Cc1ccc(COc2ccc(CNCC3CCCCC3)cc2OCc2ccc(C)cc2)cc1` [XIELP1-25b], the IC50 in the data set on U266 came to 1.26 µM; in the data set on RPMI8266, 0.92 µM; in the data set with MM1S, 1.51 µM.
Consider `Cc1ccc(COc2ccc(CNC3CCCCC3)cc2OCc2ccc(C)cc2)cc1` [XIELP1-51, N-(3,4-bis((4-methylbenzyl)oxy)benzyl)cyclohexanamine], for which the values for the IC50 in the data set on RPMI8266 and in the data set with MM1S were 1.83 µM and 5.36 µM, respectively.
On the same counts, the results for `Fc1ccc(COc2cc(CNCC3CCCCC3)cc(OCc3ccc(F)cc3F)c2)c(F)c1` [XIELP1-58, N-(3,5-bis((2,4-difluorobenzyl)oxy)benzyl)-1-cyclohexylmethanamine] are 1.4 µM and 2.5 µM.
In the case of `Fc1ccc(COc2cc(CNC3CCCCC3)cc(OCc3ccc(F)cc3F)c2)c(F)c1` [XIELP1-60, N-(3,5-bis((2,4-difluorobenzyl)oxy)benzyl)cyclohexanamine], the values for the IC50 with RPMI8266 and in the data set with MM1S were 1.33 µM and 2.51 µM, respectively.
With `Fc1ccc(COc2ccc(CNCC3CCCCC3)cc2OCc2ccc(F)cc2)cc1` [XIELP1-106, N-(3,4-bis((4-fluorobenzyl)oxy)benzyl)-1-cyclohexylmethanamine Hydrochloride], the IC50 in the data set on RPMI8266 came to 0.72 µM; in the data set with MM1S, 2.46 µM. In data set [1] (60 mg/kg, ip, q3d×4 wks, tumor volume vs vehicle control, day 39 after tumor implantation, p=0.001), the “T/C value (antitumor activity)” value is listed as 23%. For the same compound, the body weight loss in data set [1] (mice, 60 mg/kg ip q3d, after 3 doses, tolerability developed afterwards) is reported as 11.2%. For the same compound, the “other gross clinical abnormality” value in data set [1] (mice, 60 mg/kg ip q3d×4 wks) is reported as “No other gross clinical abnormality was observed”.
